The subject of data set [1] is Rattus norvegicus. Put plainly: Acute Anti-inflammatory activity in Rattus norvegicus albino (rat) assessed as inhibition of carrageenan-induced paw edema at 200 mg/kg, po administered 1 hr after carrageenan challenge measured after 5 hr relative to control. Format: functional. A general note: In the carrageenan paw model, swelling and tenderness develop within hours.

Data set [2] concerns Mus musculus. Put plainly: Acute toxicity in Mus musculus albino (mouse) assessed as mortality up to 2000 mg/kg, po after 24 hr. Format: organism-based. Also on record: dose 2000 mg/kg, route oral. The note with it: in vivo.
The test system of data set [3] is Rattus norvegicus. The experiment in a line: Acute Anti-inflammatory activity inRattus norvegicus albino (rat) assessed as inhibition of carrageenan-induced paw edema at 200 mg/kg, po administered 1 hr after carrageenan challenge measured after 3 hr relative to control. It counts as functional.
The nature of data set [4]: Acute toxicity in po dosed Mus musculus albino (mouse) up to 24 hr. Format: organism-based. To be noted: in vivo.
Data set [5] deals with Mus musculus. The experiment in a line: Acute toxicity in Mus musculus albino (mouse) assessed as alertness, touch response, and restlessness at 10 to 2000 mg/kg, po after 24 hr. Format: organism-based. Also on record: dose 10-2000 mg/kg, route oral. The note with it: in vivo.
Data set [6] has as its system Rattus norvegicus. The experiment in a line: Toxicity inRattus norvegicus albino (rat) assessed as ulcer index at 200 mg/kg, po after 7 hr relative to control. Format: organism-based. Also on record: dose 200 mg/kg, route oral. The note with it: in vivo.
Data set [7] concerns Mus musculus. Put plainly: Analgesic activity in Mus musculus albino (mouse) assessed as protection against acetic acid-induced writhing at 200 mg/kg, po administered 30 min before acetic acid challenge measured after 15 min relative to control. Format: functional. (Writhing tests count abdominal constrictions after an irritant is injected.)
For data set [8], the system named is Mus musculus. Put plainly: Analgesic activity in Mus musculus albino (mouse) assessed as protection against acetic acid-induced writhing at 135 mg/kg, po administered 30 min before acetic acid challenge measured after 15 min relative to control. Format: functional.
Data set [9] concerns Rattus norvegicus. The experiment in a line: Acute Anti-inflammatory activity in Rattus norvegicus albino (rat) assessed as inhibition of carrageenan-induced paw edema at 13.5 mg/kg, po administered 1 hr after carrageenan challenge measured after 5 hr relative to control. Format: functional.
Data set [10] concerns Rattus norvegicus. The experiment in a line: Acute Anti-inflammatory activity in Rattus norvegicus albino (rat) assessed as inhibition of carrageenan-induced paw edema at 13.5 mg/kg, po administered 1 hr after carrageenan challenge measured after 3 hr relative to control. Format: functional.

SMILES strings stand for the structures.

`O=C(CSc1nnc(-c2ccccc2O)o1)c1cc2ccccc2oc1=O`: the inhibition in vivo at 200 mg/kg in the data set with Rattus norvegicus [1] stood at 48.7%; with Rattus norvegicus [3], 46.3%. For the same molecule, the Activity entry in the data set with Mus musculus [2] is listed as “Non-toxic”; in the data set with Mus musculus [5], “Toxic”. The molecule further returned an MTD at 24 h in data set [4] of 200 mg/kg.

For `O=C(CSc1nnc(Cc2ccccc2Nc2c(Cl)cccc2Cl)o1)c1cc2ccccc2oc1=O`, the UI in the data set on Rattus norvegicus [6] was determined as 1.7. The Activity in the data set on Mus musculus [7] is 68%; with Mus musculus [2], “Non-toxic”; in the data set on Mus musculus [5], “Toxic”. The figures for the inhibition in vivo at 200 mg/kg with Rattus norvegicus [1] and in the data set on Rattus norvegicus [3] were 64.5% and 81.3%, respectively. For the same molecule, the MTD at 24 h in [4] worked out at 200 mg/kg.

As to `O=C(Cc1ccccc1Nc1c(Cl)cccc1Cl)OCc1nnc(SCC(=O)c2cc3ccccc3oc2=O)o1`, the inhibition in vivo at 200 mg/kg in the data set with Rattus norvegicus [1] is 26.3%; in the data set with Rattus norvegicus [3], 37.5%. The Activity entry is “Non-toxic” with Mus musculus [2] and “Toxic” in the data set on Mus musculus [5]. Besides, the MTD at 24 h in [4] was found to be 200 mg/kg.

On to `C[C@H](c1ccc(-c2ccccc2)c(F)c1)c1nnc(SCC(=O)c2cc3ccccc3oc2=O)o1`, for which the UI with Rattus norvegicus [6] is on record as 2.3. Moreover, the Activity in the data set on Mus musculus [7] is listed as 60%; in the data set with Mus musculus [2], “Non-toxic”; with Mus musculus [5], “Toxic”. For the same molecule, the results for the inhibition in vivo at 200 mg/kg in the data set on Rattus norvegicus [1] and with Rattus norvegicus [3] were 61.6% and 74.9%, respectively. The molecule further yielded an MTD at 24 h in [4] of 200 mg/kg.

Turning to `CC(c1cccc(C(=O)c2ccccc2)c1)c1nnc(SCC(=O)c2cc3ccccc3oc2=O)o1` (stereo not given), the UI with Rattus norvegicus [6] is given as 3.2. The Activity in the data set with Mus musculus [7] is 73%; with Mus musculus [2], “Non-toxic”; in the data set with Mus musculus [5] it was “Toxic”. Besides, the inhibition in vivo at 200 mg/kg in the data set on Rattus norvegicus [1] was 60.9%; in the data set with Rattus norvegicus [3], 65.4%. In data set [4], the MTD at 24 h came out at 200 mg/kg.

Regarding `COc1ccc2c(c1)c(Cc1nnc(SCC(=O)c3cc4ccccc4oc3=O)o1)c(C)n2C(=O)c1ccc(Cl)cc1`, the results for the inhibition in vivo at 200 mg/kg with Rattus norvegicus [1] and in the data set on Rattus norvegicus [3] were 51.3% and 56.9%, respectively. For the same molecule, the Activity result in the data set on Mus musculus [2] is recorded as “Non-toxic”; in the data set on Mus musculus [5], “Toxic”. The MTD at 24 h in data set [4] was 200 mg/kg.

Turning to `O=C(CSc1nnc(C2CCn3c(C(=O)c4ccccc4)ccc32)o1)c1cc2ccccc2oc1=O` (stereo not given), the UI in the data set with Rattus norvegicus [6] amounted to 4.4. The Activity in the data set with Mus musculus [7] is given as 54%; in the data set with Mus musculus [2], “Non-toxic”; in the data set on Mus musculus [5], “Toxic”. Further, the inhibition in vivo at 200 mg/kg came to 71.3% in the data set with Rattus norvegicus [1] and 67.4% with Rattus norvegicus [3]. This molecule came in with an MTD at 24 h in data set [4] of 200 mg/kg.

Take `CC(=O)Nc1ccc(OCc2nnc(SCC(=O)c3cc4ccccc4oc3=O)o2)cc1`: the inhibition in vivo at 200 mg/kg with Rattus norvegicus [1] is 43.4%; with Rattus norvegicus [3], 56.3%. Moreover, the Activity result was “Non-toxic” with Mus musculus [2] and “Toxic” in the data set on Mus musculus [5]. The MTD at 24 h in data set [4] was determined as 200 mg/kg.

Consider `CC(C)Cc1ccc(C(C)c2nnc(SCC(=O)c3cc4ccccc4oc3=O)o2)cc1` (stereo not given), for which the results for the inhibition in vivo at 200 mg/kg with Rattus norvegicus [1] and in the data set on Rattus norvegicus [3] were 46.1% and 45%, respectively. Further, the Activity entry in the data set with Mus musculus [2] is on record as “Non-toxic”; with Mus musculus [5] it was “Toxic”. Moreover, the MTD at 24 h in data set [4] is 200 mg/kg.

Consider `CC(=O)Oc1ccccc1C(=O)O` [ASPIRIN], for which the Activity with Mus musculus [8] is 69%.

For `O=C(O)Cc1ccccc1Nc1c(Cl)cccc1Cl` [DICLOFENAC], in the data set on Rattus norvegicus [6], the UI is 5.5. Besides, the inhibition in vivo at 13.5 mg/kg came out at 75% in the data set with Rattus norvegicus [9] and 79.5% with Rattus norvegicus [10].

For `CC(C(=O)O)c1ccc(-c2ccccc2)c(F)c1` (stereo not given) [FLURBIPROFEN], the UI with Rattus norvegicus [6] was determined as 5.3.

On to `CC(C(=O)O)c1cccc(C(=O)c2ccccc2)c1` (stereo not given) [KETOPROFEN], for which, in the data set with Rattus norvegicus [6], the UI is 4.6.

`O=C(c1ccccc1)c1ccc2n1CCC2C(=O)O` (stereo not given) [KETOROLAC]: the UI in the data set with Rattus norvegicus [6] is listed as 4.9.

In general, inhibition in vivo refers to the relative decrease from the control value, in per cent.

The record behind these values is ChEMBL document CHEMBL3046047, “Synthesis and evaluation of anti-inflammatory and analgesic activity of 3-[(5-substituted-1,3,4-oxadiazol-2-yl-thio)acetyl]-2H-chromen-2-ones” (Med Chem Res, 2012).
